Laboratory results as given in PMC6277767, “Broad and Region-Specific Impacts of the Synthetic Cannabinoid CP 55,940 in Adolescent and Adult Female Mouse Brains” (Frontiers in Molecular Neuroscience, 2018).

System: CD1 female mouse brain lipidome
Assay: Brain-region lipid levels (HPLC/MS/MS lipidomics) 2 h after single i.p. 3 mg/kg CP 55,940 vs vehicle
Format: in vivo
Settings: cerebellum, 3 mg/kg CP 55,940
Protocol: The Bloomington Institutional Animal Care and Use Committee of Indiana University reviewed and approved the animal procedures. Female mice from the CD1 strain were utilized to match our study examining THC’s effects on the brain lipidome ([Leishman et al., 2018]). Mice were given a single i.p. injection of either 3 mg/kg CP or 1:1:18 cremophor:ethanol:saline vehicle (please refer to the section “3 mg/kg CP Is Relevant for Synthetic Cannabinoid Abuse and Has Stronger Effects on the Female Mouse Brain Lipidome During Adolescence” for a justification of dose and use of female mice). Three different age groups were given injections: PND 35 and PND 50 adolescents, and adult mice (PND 113). At least eight mice in each age group received CP and at least eight received vehicle. Matching the THC study time course ([Leishman et al., 2018]), mice were sacrificed via rapid decapitation 2 h after injection. Brains were immediately removed and flash-frozen in liquid nitrogen, and then stored at -80°C until dissections were performed. Brains were dissected on an ice-cold dissection plate into the following regions: STR, HIPP, CER, THAL, CTX, HYP, MID, and STEM. These abbreviations for these brain areas will be used exclusively when discussing the results generated by these specific dissections. Each dissected area was immediately placed in liquid nitrogen and then stored at -80°C until used for lipid extraction.
Tissue extracts were performed as previously described ([Bradshaw et al., 2006]; [Stuart et al., 2013]; [Raboune et al., 2014]; [Leishman et al., 2016a],[b], [2017], [2018]). First, samples were shock frozen in liquid nitrogen, weighed, and transferred to a centrifuge tube. The mass of the largest sample was multiplied by 50 to determine how many milliliters of HPLC-grade methanol (Fisher, Fair Lawn, NJ, United States) to add. Then, samples were spiked with 500 pmol deuterium-labeled NAGly (d8NAGly; Cayman Chemical, Ann Arbor, MI, United States). Samples were placed on ice in darkness for 2 h then individually homogenized and centrifuged at 19,000 × g for 20 min at 20°C. Supernatants were diluted with HPLC water (purified in house) to make a solution of 75% water, 25% supernatant. Lipids were partially purified on C18 solid phase extraction columns (Agilent, Palo Alto, CA, United States). A series of four elutions with 1.5 mL of 60%, 75%, 85%, and 100% methanol were collected ([Stuart et al., 2013]; [Leishman et al., 2016a],[b], [2018]).
As previously described ([Bradshaw et al., 2006]; [Tan et al., 2006]; [Smoum et al., 2010]; [Stuart et al., 2013]; [Tortoriello et al., 2013]; [Raboune et al., 2014]; [Leishman et al., 2016a],[b], [2017], [2018]), samples were analyzed using an Applied Biosystems API 3000 triple quadrupole mass spectrometer with electrospray ionization (Foster City, CA, United States). Using an Agilent XDB-C18 reversed phase analytical column and optimized mobile phase gradients, 20 μL from each elution were chromatographed. Two Shimadzu 10ADvp pumps (Columbia, MD, United States) provided the pressure for gradient elution. Mobile phase A: 20% methanol, 80% water (v/v) and 1 mM ammonium acetate (Sigma, St. Louis, MO, United States). Mobile phase B: 100% methanol, 1 mM ammonium acetate. Every method run began with 0% mobile phase B, reached 100% mobile phase B flowing at 0.2 mL/min, and gradually returned to 0% mobile phase B.
This screening library will be referred to as the lipidome when discussing data from this study. HPLC/MS/MS data were analyzed using Analyst software (Applied Biosystems) ([Bradshaw et al., 2006]; [Tan et al., 2006]; [Stuart et al., 2013]; [Tortoriello et al., 2013]; [Raboune et al., 2014]; [Leishman et al., 2016a],[b], [2017], [2018]). Chromatograms (Supplementary Figure 3) were generated by determining the retention time of analytes from the analytical column with a [M-1] or [M+1] parent peak and a fragmentation peak corresponding to the programmed values. […]

CCCCCCC(C)(C)c1ccc([C@@H]2C[C@H](O)CC[C@H]2CCCO)c(O)c1 [CP 55,940]
PGE2: Magnitude (x Veh level) (adult): 0.70 x Veh level | PGF2α: Direction (relative to Veh) (adult): ↓ | PGF2α: Magnitude (x Veh level) (adult): 0.67 x Veh level | phosphoLEA: Direction (relative to Veh) (adult): ↓ | phosphoLEA: Magnitude (x Veh level) (adult): 0.71 x Veh level | 2-arachidonoyl glycerol: Direction (relative to Veh) (PND 35): ↓ | 2-arachidonoyl glycerol: Magnitude (x Veh level) (PND 35): 0.80 x Veh level | 2-linoleoyl glycerol: Direction (relative to Veh) (PND 35): ↓ | 2-linoleoyl glycerol: Magnitude (x Veh level) (PND 35): 0.75 x Veh level | 6-ketoPGF1α: Magnitude (x Veh level) (PND 35): 0.61 x Veh level | Arachidonic acid: Direction (relative to Veh) (PND 35): ↓ | Arachidonic acid: Magnitude (x Veh level) (PND 35): 0.92 x Veh level | N-arachidonoyl GABA: Direction (relative to Veh) (PND 35): ↓ | N-arachidonoyl GABA: Magnitude (x Veh level) (PND 35): 0.72 x Veh level | N-arachidonoyl alanine: Direction (relative to Veh) (PND 35): ↓ | N-arachidonoyl alanine: Magnitude (x Veh level) (PND 35): 0.71 x Veh level | N-arachidonoyl glycine: Direction (relative to Veh) (PND 35): ↓ | N-arachidonoyl glycine: Magnitude (x Veh level) (PND 35): 0.89 x Veh level | N-arachidonoyl methionine: Direction (relative to Veh) (PND 35): ↓ | N-arachidonoyl methionine: Magnitude (x Veh level) (PND 35): 0.63 x Veh level | N-arachidonoyl serine: Direction (relative to Veh) (PND 35): ↓ | N-arachidonoyl serine: Magnitude (x Veh level) (PND 35): 0.74 x Veh level | N-arachidonoyl taurine: Direction (relative to Veh) (PND 35): ↓ | N-arachidonoyl taurine: Magnitude (x Veh level) (PND 35): 0.87 x Veh level | N-arachidonoyl tyrosine: Direction (relative to Veh) (PND 35): ↓ | N-arachidonoyl tyrosine: Magnitude (x Veh level) (PND 35): 0.70 x Veh level | N-docosahexaenoyl GABA: Direction (relative to Veh) (PND 35): ↓ | N-docosahexaenoyl GABA: Magnitude (x Veh level) (PND 35): 0.81 x Veh level | N-docosahexaenoyl alanine: Direction (relative to Veh) (PND 35): ↓ | N-docosahexaenoyl alanine: Magnitude (x Veh level) (PND 35): 0.72 x Veh level | N-docosahexaenoyl glycine: Direction (relative to Veh) (PND 35): ↓ | N-docosahexaenoyl glycine: Magnitude (x Veh level) (PND 35): 0.92 x Veh level | N-docosahexaenoyl leucine: Direction (relative to Veh) (PND 35): ↑ | N-docosahexaenoyl leucine: Magnitude (x Veh level) (PND 35): 1.44 x Veh level | N-docosahexaenoyl serine: Direction (relative to Veh) (PND 35): ↓ | N-docosahexaenoyl serine: Magnitude (x Veh level) (PND 35): 0.72 x Veh level | N-docosahexaenoyl tyrosine: Direction (relative to Veh) (PND 35): ↓ | N-docosahexaenoyl tyrosine: Magnitude (x Veh level) (PND 35): 0.84 x Veh level | N-linoleoyl glycine: Direction (relative to Veh) (PND 35): ↓ | N-linoleoyl glycine: Magnitude (x Veh level) (PND 35): 0.89 x Veh level | N-linoleoyl leucine: Direction (relative to Veh) (PND 35): ↑ | N-linoleoyl leucine: Magnitude (x Veh level) (PND 35): 1.29 x Veh level | N-linoleoyl phenylalanine: Direction (relative to Veh) (PND 35): ↑ | N-linoleoyl phenylalanine: Magnitude (x Veh level) (PND 35): 1.28 x Veh level | N-oleoyl GABA: Direction (relative to Veh) (PND 35): ↓ | N-oleoyl GABA: Magnitude (x Veh level) (PND 35): 0.83 x Veh level | N-oleoyl ethanolamine: Direction (relative to Veh) (PND 35): ↓ | N-oleoyl ethanolamine: Magnitude (x Veh level) (PND 35): 0.81 x Veh level | N-oleoyl leucine: Direction (relative to Veh) (PND 35): ↑ | N-oleoyl leucine: Magnitude (x Veh level) (PND 35): 1.25 x Veh level | N-oleoyl phenylalanine: Direction (relative to Veh) (PND 35): ↑
